Values after ≈ are worked out from the molar mass of the structure shown.
Experiments:
P. aeruginosa ATCC 35151 = assay: microbe, parasite or virus in culture; assay type: cell-based; conditions: Pseudomonas aeruginosa, ATCC35151, read-out: MIC P. aeruginosa ATCC 35151
N. gonorrhoeae WHO X = assay: Liquid broth MIC in Fastidious broth; conditions: Neisseria gonorrhoeae, read-out: Minimum Inhibitory Concentration (MIC), N. gonorrhoeae WHO X
N. gonorrhoeae CDC-0197 = assay: Liquid broth MIC in Fastidious broth; conditions: Neisseria gonorrhoeae, CDC0197, read-out: Minimum Inhibitory Concentration (MIC), N. gonorrhoeae CDC-0197
N. gonorrhoeae WHO G = assay: Liquid broth MIC in Fastidious broth; conditions: Neisseria gonorrhoeae, read-out: Minimum Inhibitory Concentration (MIC), N. gonorrhoeae WHO G
Description: Additional antibacterial testing of the series was performed in 8 reference strains of N. gonorrhoeae (ATCC 49226, FA1090, MS 11, WHO G, WHO L, WHO M, WHO K, WHO X, WHO Z, WHO Q, CDC-0197). ATCC 49226, FA1090, MS11, WHO G, WHO L, and WHO M produce wild type or wild-type like PBP2. WHO K, WHO X, WHO Z, WHO Q, and CDC-0197 produce mosaic PBP2. Liquid broth-based assays were used for antibacterial testing of PBP inhibitors in Neisseria gonorrhoeae. Briefly, cryo-preserved bacterial cultures of clinical strains were streaked for isolation on Chocolate Agar (72 g/L (2×) GC Agar Base (BD #228950) and 2% (2×) Hemoglobin was autoclaved at 121° C. for 20 minutes to sterilize. Once cooled to ˜50° C. the 2×GC Agar Base and 2× Hemoglobin solutions are combined and 1% IsoVitaleX Enrichment (BD #211876) was added to the solution). Strains were incubated at 36° C. and 5% CO2 to allow growth of colonies, 24 hours before inoculum preparation. 2-fold serial dilutions of test compounds were conducted in a 96 well plate with a final volume of 75 μL per well at 2-fold the final desired concentration in Fastidious broth (Remel #R07664). For preparation of assay inoculum, a direct suspension was prepared by aseptically swabbing 10-15 colonies from agar plates into culture tubes containing 2 mL of fresh sterile saline. After the dilution plates were set up, direct suspensions were then diluted in a cuvette containing sterile saline and the optical density was measured at 600 nm. Inocula were diluted such that 75 μL of this culture in Fastidious broth results in a starting bacterial concentration of 5×10^5 CFU/mL when added to the dilution plates. The plates were incubated for ˜24 hours at 36° C. and 5% CO2.

E. coli 901C = assay: microbe, parasite or virus in culture; assay type: cell-based; conditions: Escherichia coli, read-out: MIC E. coli 901C
K. pneumoniae SI-117 = assay: microbe, parasite or virus in culture; assay type: cell-based; conditions: Klebsiella pneumoniae, SI117, read-out: MIC K. pneumoniae SI-117
N. gonorrhoeae WHO Q = assay: Liquid broth MIC in Fastidious broth; conditions: Neisseria gonorrhoeae, read-out: Minimum Inhibitory Concentration (MIC), N. gonorrhoeae WHO Q
N. gonorrhoeae WHO L = assay: Liquid broth MIC in Fastidious broth; conditions: Neisseria gonorrhoeae, read-out: Minimum Inhibitory Concentration (MIC), N. gonorrhoeae WHO L
E. coli ATCC 25922 = assay: microbe, parasite or virus in culture; assay type: cell-based; conditions: Escherichia coli, ATCC25922, read-out: MIC E. coli 25922
A. baumannii ATCC 19606 = assay: microbe, parasite or virus in culture; assay type: cell-based; conditions: Acinetobacter baumannii, ATCC19606, read-out: MIC, A. baumannii ATCC 19606
[1] = system: P. aeruginosa (ΔmexAB-oprM); assay: Broth microdilution MIC in CAMHB; assay type: cell-based; conditions: Pseudomonas aeruginosa; read-out: MIC P. aeruginosa ΔmexAB-oprM
N. gonorrhoeae WHO K = assay: Liquid broth MIC in Fastidious broth; conditions: Neisseria gonorrhoeae, read-out: Minimum Inhibitory Concentration (MIC), N. gonorrhoeae WHO K

SMILES	MIC (P. aeruginosa ATCC 35151) [µg/mL]	MIC (N. gonorrhoeae WHO X) [µg/mL]	MIC (N. gonorrhoeae CDC-0197) [µg/mL]	MIC (N. gonorrhoeae WHO G) [µg/mL]	MIC (E. coli 901C) [µg/mL]	MIC (K. pneumoniae SI-117) [µg/mL]	MIC (N. gonorrhoeae WHO Q) [µg/mL]	MIC (N. gonorrhoeae WHO L) [µg/mL]	MIC (E. coli ATCC 25922) [µg/mL]	MIC (A. baumannii ATCC 19606) [µg/mL]	MIC [1] [µg/mL]	MIC (N. gonorrhoeae WHO K) [µg/mL]
O=C(O)c1cccc2c1OB(O)[C@@H](NC(=O)[C@H](NC(=O)[C@@H]1CCCN1)c1ccc(P(=O)(O)O)cc1)C2 [Example 173, (R)-2-hydroxy-3-((R)-2-(4-phosphonophenyl)-2-((S)-pyrrolidine-2-carboxamido)acetamido)-3,4-dihydro-2H-benzo[e][1,2]oxaborinine-8-carboxylic acid]	8 to 16 (≈ 15.5 to 30.9 µM)	16 to 32 (≈ 30.9 to 61.9 µM)	16 to 32 (≈ 30.9 to 61.9 µM)	4 to 8 (≈ 7.73 to 15.5 µM)	32 to 64 (≈ 61.9 to 124 µM)	32 to 64 (≈ 61.9 to 124 µM)	16 to 32 (≈ 30.9 to 61.9 µM)	16 to 32 (≈ 30.9 to 61.9 µM)	> 128	> 128	32 to 64 (≈ 61.9 to 124 µM)	16 to 32 (≈ 30.9 to 61.9 µM)
CS(=O)(=O)NC(C(=O)N[C@H]1Cc2cccc(C(=O)O)c2OB1O)c1ccc(P(=O)(O)O)cc1 (stereo partly drawn) [Example 59, (3R)-2-hydroxy-3-(2-(methylsulfonamido)-2-(4-phosphonophenyl)acetamido)-3,4-dihydro-2H-benzo[e][1,2]oxaborinine-8-carboxylic acid]	32 to 64 (≈ 64.2 to 128 µM)	16 to 32 (≈ 32.1 to 64.2 µM)	16 to 32 (≈ 32.1 to 64.2 µM)	16 to 32 (≈ 32.1 to 64.2 µM)	32 to 64 (≈ 64.2 to 128 µM)	> 128	16 to 32 (≈ 32.1 to 64.2 µM)	16 to 32 (≈ 32.1 to 64.2 µM)	> 128	> 128	> 128	16 to 32 (≈ 32.1 to 64.2 µM)
O=C(O)c1cccc2c1OB(O)[C@@H](NC(=O)[C@@H](NC(=O)c1cccn(C(F)F)c1=O)c1ccc(P(=O)(O)O)cc1)C2 (single isomer, unassigned) [Example 190]	2 to 4 (≈ 3.38 to 6.77 µM)	16 to 32 (≈ 27.1 to 54.1 µM)	4 to 8 (≈ 6.77 to 13.5 µM)	1 to 2 (≈ 1.69 to 3.38 µM)	2 to 4 (≈ 3.38 to 6.77 µM)	> 128	4 to 8 (≈ 6.77 to 13.5 µM)	16 to 32 (≈ 27.1 to 54.1 µM)	> 128	> 128	32 to 64 (≈ 54.1 to 108 µM)	16 to 32 (≈ 27.1 to 54.1 µM)
N#Cc1ccnc(C(=O)NC(C(=O)N[C@H]2Cc3cccc(C(=O)O)c3OB2O)c2ccc(P(=O)(O)O)cc2)c1 (stereo partly drawn) [Example 179, (3R)-3-(2-(4-cyanopicolinamido)-2-(4-phosphonophenyl)acetamido)-2-hydroxy-3,4-dihydro-2H-benzo[e][1,2]oxaborinine-8-carboxylic acid]	2 to 4 (≈ 3.63 to 7.27 µM)	16 to 32 (≈ 29.1 to 58.2 µM)	16 to 32 (≈ 29.1 to 58.2 µM)	16 to 32 (≈ 29.1 to 58.2 µM)	8 to 16 (≈ 14.5 to 29.1 µM)	> 128	16 to 32 (≈ 29.1 to 58.2 µM)	16 to 32 (≈ 29.1 to 58.2 µM)	> 128	> 128	> 128	16 to 32 (≈ 29.1 to 58.2 µM)
O=C(O)c1cccc2c1OB(O)[C@@H](NC(=O)[C@@H](NC(=O)c1cnc3sccn3c1=O)c1ccc(P(=O)(O)O)cc1)C2 (single isomer, unassigned) [Example 194]	2 to 4 (≈ 3.34 to 6.69 µM)	16 to 32 (≈ 26.7 to 53.5 µM)	16 to 32 (≈ 26.7 to 53.5 µM)	4 to 8 (≈ 6.69 to 13.4 µM)	2 to 4 (≈ 3.34 to 6.69 µM)	> 128	16 to 32 (≈ 26.7 to 53.5 µM)	16 to 32 (≈ 26.7 to 53.5 µM)	> 128	> 128	32 to 64 (≈ 53.5 to 107 µM)	16 to 32 (≈ 26.7 to 53.5 µM)
O=C(O)c1cccc2c1OB(O)[C@@H](NC(=O)C(NC(=O)N1CCCNC1=O)c1ccc(P(=O)(O)O)cc1)C2 (stereo partly drawn) [Example 56, (3R)-2-hydroxy-3-(2-(2-oxohexahydropyrimidine-1-carboxamido)-2-(4-phosphonophenyl)acetamido)-3,4-dihydro-2H-benzo[e][1,2]oxaborinine-8-carboxylic acid]	< 1	16 to 32 (≈ 29.3 to 58.6 µM)	4 to 8 (≈ 7.32 to 14.6 µM)	1 to 2 (≈ 1.83 to 3.66 µM)	2 to 4 (≈ 3.66 to 7.32 µM)	> 128	4 to 8 (≈ 7.32 to 14.6 µM)	16 to 32 (≈ 29.3 to 58.6 µM)	> 128	> 128	> 128	16 to 32 (≈ 29.3 to 58.6 µM)
CC(C)S(=O)(=O)NC(C(=O)N[C@H]1Cc2cccc(C(=O)O)c2OB1O)c1ccc(P(=O)(O)O)cc1 (stereo partly drawn) [Example 60, (3R)-2-hydroxy-3-(2-((1-methylethyl)sulfonamido)-2-(4-phosphonophenyl)acetamido)-3,4-dihydro-2H-benzo[e][1,2]oxaborinine-8-carboxylic acid]	32 to 64 (≈ 60.8 to 122 µM)	16 to 32 (≈ 30.4 to 60.8 µM)	16 to 32 (≈ 30.4 to 60.8 µM)	16 to 32 (≈ 30.4 to 60.8 µM)	32 to 64 (≈ 60.8 to 122 µM)	> 128	16 to 32 (≈ 30.4 to 60.8 µM)	16 to 32 (≈ 30.4 to 60.8 µM)	> 128	> 128	> 128	16 to 32 (≈ 30.4 to 60.8 µM)
O=C(O)c1cccc2c1OB(O)[C@@H](NC(=O)C(NC(=O)c1cnc[nH]c1=O)c1ccc(P(=O)(O)O)cc1)C2 (stereo partly drawn) [Example 176, (3R)-2-hydroxy-3-(2-(6-oxo-1,6-dihydropyrimidine-5-carboxamido)-2-(4-phosphonophenyl)acetamido)-3,4-dihydro-2H-benzo[e][1,2]oxaborinine-8-carboxylic acid]	2 to 4 (≈ 3.69 to 7.38 µM)	16 to 32 (≈ 29.5 to 59 µM)	16 to 32 (≈ 29.5 to 59 µM)	4 to 8 (≈ 7.38 to 14.8 µM)	8 to 16 (≈ 14.8 to 29.5 µM)	> 128	16 to 32 (≈ 29.5 to 59 µM)	16 to 32 (≈ 29.5 to 59 µM)	> 128	> 128	32 to 64 (≈ 59 to 118 µM)	16 to 32 (≈ 29.5 to 59 µM)
Nc1ncc(C(=O)N[C@@H](C(=O)N[C@H]2Cc3cccc(C(=O)O)c3OB2O)c2ccc(P(=O)(O)O)cc2)s1 (racemic) [Example 50, (R)-3-((S)-2-(2-aminothiazole-5-carboxamido)-2-(4-phosphonophenyl)acetamido)-2-hydroxy-3,4-dihydro-2H-benzo[e][1,2]oxaborinine-8-carboxylic acid and (R)-3-((R)-2-(2-aminothiazole-5-carboxamido)-2-(4-phosphonophenyl)acetamido)-2-hydroxy-3,4-dihydro-2H-benzo[e][1,2]oxaborinine-8-carboxylic acid]	2 to 4 (≈ 3.66 to 7.32 µM)	16 to 32 (≈ 29.3 to 58.6 µM)	16 to 32 (≈ 29.3 to 58.6 µM)	1 to 2 (≈ 1.83 to 3.66 µM)	8 to 16 (≈ 14.6 to 29.3 µM)	> 128	16 to 32 (≈ 29.3 to 58.6 µM)	16 to 32 (≈ 29.3 to 58.6 µM)	> 128	> 128	32 to 64 (≈ 58.6 to 117 µM)	16 to 32 (≈ 29.3 to 58.6 µM)
